Consider 6 molecules from paper PMC6222476 (Molecules : A Journal of Synthetic Chemistry and Natural …, 2018).

Data set [1] concerns IMR-32 neuroblastoma cell line. In words: cells. The format is cell-based, human. The following applies: SRB assay, 48 h. Here is the method: (§1) All the newly synthesized compounds were screened for their in vitro anticancer activity against six cancer cell lines: SK-MEL-2, MCF-7, IMR-32, MG-63, HT-29 and Hep-G2 by SRB assay, using adriamycin as a standard drug. All the synthesized derivatives 4(a–n) were also tested for their cytotoxic effect on normal cell lines i.e., NIH/3T3 (murine embryonic fibroblast by the SRB assay method. The cell lines were grown in RPMI 1640 medium containing 10% fetal bovine serum and 2 mM L-glutamine. For the present screening experiments, cells were inoculated into 96 well microtiter plates in 90 µL at 5000 cells per well. After cell inoculation, the microtiter plates were incubated at 37 °C, 5% CO2, 95% air and 100% relative humidity for 24 h prior to addition of experimental drugs. Experimental drugs were solubilized in appropriate solvent to prepare stock of 10^−2 concentration. At the time of experiment four 10-fold serial dilutions were made using complete medium. Aliquots of 10 µL of these different drug dilutions were added to the appropriate micro-titer wells already containing 90 µL of medium, resulting in the required final drug concentrations. After compound addition, plates were incubated at standard conditions for 48 h. and assay was terminated by the addition of cold trichloroacetic acid (TCA). Cells were fixed in situ by the gentle addition of […] (final concentration, 10% TCA) and incubated for 60 min at 4 °C. The supernatant was discarded; the plates were washed five times with tap water and air dried.
(§2) Sulforhodamine B (SRB) solution (50 µL) at 0.4% (w/v) in 1% acetic acid was added to each of the wells, and plates were incubated for 20 min at room temperature. After staining, unbound dye was recovered and the residual dye was removed by washing five times with 1% acetic acid. The plates were air dried. Bound stain was subsequently eluted with 10 mM trizma base, and the absorbance was read on an ELISA plate reader at a wavelength of 540 nm with 690 nm reference wavelength. All the tests were repeated in at least three independent experiments at the concentrations of 10, 20, 40 and 80 µg/mL [57].
In general terms: In SRB staining, fixed cells bind dye roughly in proportion to their protein.

The subject of data set [2] is HT-29 human colon cancer cell line. In words: cells. The format is cell-based. The following applies: for anticancer activity compared with standard drug adriamycin, HT-29: HT-29 (human colon cancer) cell line; for GI50: SRB assay, 48 h, HT-29. How it is done:
as §1, §2

Data set [3] relates to Hep-G2 human hepatoma cell line. Briefly: cells. The format is cell-based. The following applies: for GI50: SRB assay, 48 h, Hep-G2. Here is the method:
as §1, §2

The test system of data set [4] is MCF-7 human breast cancer cell line. In words: cells. The format is cell-based. The following applies: 48 h. Here is the method:
as §1, §2

Data set [5] deals with MG-63 human osteosarcoma cell line. Briefly: cells. The format is cell-based. To be noted: SRB assay, 48 h. How it is done:
as §1, §2

The test system of data set [6] is SK-MEL-2 human melanoma cancer cell line. In words: cells. The format is cell-based. The following applies: SRB assay, 48 h, read-out: GI50 SKMEL-2. How it is done: as §1, §2
Another data set can be described thus: in vitro. The format is cell-based. The following applies: mouse; SRB assay, normal murine embryonic fibroblast cell line; read-out: GI50 NIH/3T3. How it is done: as §1, §2
The subject of data set [7] is NIH/3T3 normal murine embryonic fibroblast cell line. Briefly: in vitro. The format is cell-based. To be noted: SRB assay. Here is the method: as §1, §2
Data set [8] concerns SK-MEL-2 human melanoma cancer cell line. The format is cell-based. To be noted: at the GI50 concentration, in comparison to control cells.
Data set [9] relates to IMR-32 neuroblastoma cell line. The format is cell-based, human. The following applies: at the GI50 concentration, in contrast to control cells.

Like-named read-outs stand apart in the source and are kept apart here. Some results are limits rather than exact numbers.

One may read the melting point as the temperature of the solid-liquid transition. Regarding `CCOP(=O)(OCC)C(N/N=C1\C(=O)Nc2ccccc21)c1ccc([N+](=O)[O-])cc1` (stereo not drawn) [4m, (Z)-Diethyl (4-nitrophenyl)(2-(2-oxoindolin-3-ylidene)hydrazinyl)methylphosphonate], the melting point fell in the range of 172 to 174 °C. This molecule showed a GI50 in data set [1] (Homo sapiens) of 56.6 µM. Moreover, the “anticancer activity compared with standard drug adriamycin, HT-29” value in data set [2] was “equipotent”. Moreover, in data set [2] (Homo sapiens), the GI50 was below 0.1 µM. Besides, the GI50 in [3] (Homo sapiens, HepG2) was 13.3 µM. For the same molecule, the GI50 in data set [4] (Homo sapiens, MCF7, SRB assay) was determined as 77.2 µM. Also, the GI50 in data set [5] (Homo sapiens) is below 0.1 µM. Also, in [6] (Homo sapiens), the GI50 was found to be 44.2 µM. The GI50 in the data set “in vitro” is above 250 µM.

For `CCOP(=O)(OCC)C(N/N=C1\C(=O)Nc2ccccc21)c1scnc1C` (stereo not drawn) [4n, (Z)-Diethyl (4-methylthiazole-5-yl)(2-(2-oxoindolin-3-ylidene)hydrazinyl)methylphosphonate], the melting point lay in the range of 188 to 190 °C. The GI50 in data set [1] (Homo sapiens) is 67.8 µM. Besides, the “anticancer activity compared with standard drug adriamycin, HT-29” value in [2] is “equipotent”. In addition, in [2] (Homo sapiens), the GI50 was below 0.1 µM. This molecule also had a GI50 in data set [3] (Homo sapiens, HepG2) of 24.9 µM. The GI50 in data set [4] (Homo sapiens, MCF7, SRB assay) amounted to 58.2 µM. In [5] (Homo sapiens), this molecule came in with a GI50 below 0.1 µM. The GI50 in [6] (Homo sapiens) was 33.1 µM. The GI50 in “in vitro” is above 250 µM.

Take `CCOP(=O)(OCC)C(N/N=C1\C(=O)Nc2ccccc21)c1ccc(O)c(C)c1` (stereo not drawn) [4l, (Z)-Diethyl (4-hydroxy-3-methylphenyl)(2-(2-oxoindolin-3-ylidene)hydrazinyl)methylphosphonate]: the melting point was in the range of 190 to 192 °C. In data set [1] (Homo sapiens), this molecule yielded a GI50 of 89.8 µM. Besides, in data set [2], the “anticancer activity compared with standard drug adriamycin, HT-29” value was “equipotent”. Moreover, the GI50 in [2] (Homo sapiens) is below 0.1 µM. The “anticancer activity compared with standard drug Adriamycin, Hep-G2” value in data set [3] (Hep-G2 (human hepatoma) cell line) was “equipotent”. In addition, in data set [3] (Homo sapiens, HepG2), the GI50 is below 0.1 µM. This molecule came in with a GI50 in data set [4] (Homo sapiens, MCF7, SRB assay) of 78.4 µM. The molecule also registered a GI50 in data set [5] (Homo sapiens) below 0.1 µM. For the same molecule, in data set [6] (Homo sapiens), the GI50 is 76.4 µM. Also, the GI50 in “in vitro” was above 250 µM.

In the case of `CCOP(=O)(OCC)C(N/N=C1\C(=O)Nc2ccccc21)c1ccccc1O` (stereo not drawn) [4k, (Z)-Diethyl (2-hydroxyphenyl)(2-(2-oxoindolin-3-ylidene)hydrazinyl)methylphosphonate], the melting point lay in the range of 152 to 154 °C. Further, the GI50 in data set [1] (Homo sapiens) is 44.1 µM. This molecule also came in with a GI50 in [2] (Homo sapiens) of 26.1 µM. For the same molecule, the GI50 in data set [3] (Homo sapiens, HepG2) turned out to be 11.7 µM. This molecule also yielded a GI50 in [4] (Homo sapiens, MCF7, SRB assay) above 100 µM. In data set [5] (Homo sapiens), this molecule displayed a GI50 below 0.1 µM. For the same molecule, the GI50 in [6] (Homo sapiens) is 66.2 µM. The GI50 in the data set “in vitro” is above 250 µM.

For the molecule `CCOP(=O)(OCC)C(NN=C1C(=O)Nc2ccccc21)c1ccc(O)c(OC)c1` (stereo not drawn) [4g, Diethyl(4-hydroxy-3-methoxyphenyl)(2-(2-oxoindolin-3-ylidene)hydrazinyl)methylphosphonates], the GI50 was above 100 µM in data set [1]; 12.2 µM in [2]; 32 µM in [3]; above 100 µM in [4] (SRB assay); below 0.1 µM in data set [5]; 24 µM in data set [6]. The molecule further yielded a GI50 in data set [7] above 250 µM. In addition, in data set [8], the “morphological changes in SK-MEL-2 cancer cell lines” value is “cell detachment, cell wall deformation, cell shrinkage and reduced number of viable cells”.

Regarding `CCOP(=O)(OCC)C(NN=C1C(=O)Nc2ccccc21)c1ccc(O)cc1` (stereo not drawn) [4f, Diethyl(4-hydroxyphenyl)(2-(2-oxoindolin-3-ylidene)hydrazinyl)methylphosphonate], the melting point is 140 to 142 °C. The molecule further came in with a GI50 in data set [1] (Homo sapiens) below 0.1 µM. Besides, the “anticancer activity compared with standard drug adriamycin, HT-29” value in data set [2] is listed as “equipotent”. The GI50 in data set [2] (Homo sapiens) was below 0.1 µM. The GI50 in data set [3] (Homo sapiens, HepG2) came out at 12.2 µM. In data set [4] (Homo sapiens, MCF7, SRB assay), this molecule registered a GI50 above 100 µM. Also, the GI50 in data set [5] (Homo sapiens) was below 0.1 µM. Also, the GI50 in [6] (Homo sapiens) came out at 51.6 µM. Also, the GI50 in the data set “in vitro” was above 250 µM. Moreover, the “morphological changes in IMR-32 cancer cells” value in data set [9] was “cell detachment, cell wall deformation, cell shrinkage and reduced number of viable cells”.
